Consider two compounds from paper PMC4222488, “Lipid droplet binding thalidomide analogs activate endoplasmic reticulum stress and suppress hepatocellular carcinoma in a chemically induced transgenic mouse model” (Lipids in Health and Disease, 2013).

One assay concerns DEN-induced liver tumors. The assay can be described thus: DEN-induced hepatocellular carcinoma in Matn2-/- mice. It counts as in vivo. To be noted: started 4 months after DEN, assessed 8 months after DEN. The method, then:
All mice were fed a commercial diet and water ad libitum and were housed in an animal facility under a 12 h light/dark cycle at constant temperature and humidity. For all of our studies, we employed male Matn2-deficient mice (Matn2^−/−) congenic in the 129/Sv genetic background.
For studies of liver tumor development, 15-day-old mice were treated with a single dose of DEN (Sigma-Aldrich, Budapest, Hungary) dissolved in saline at a dose of 25 mg/kg body weight by i.p. injection. 4 months after DEN injection mice were treated with either Ac-915 for 3 months (n = 15) or with Ac-2010 for 1 month (n = 10). Mice were killed 8 months after DEN administration for determination of tumor occurrence (number of tumor nodules) and liver mass index (liver weight/body weight × 100). Treatments were conducted by i.p. injection of Ac-915 at a dose of 10 mg/kg body weight three times a week or Ac-2010 at a dose of 4 mg/kg body weight three times a week.
For studies of liver tumor development, 15-day-old mice were treated with a single dose of DEN as described previously. Mice in the Ac-915 treated group (n = 15) were treated 4 months after DEN treatment for an additional 3 months. […] Mice were killed 8 months after DEN administration and the number and size of tumors and liver mass index were determined.
Liver samples were analyzed at the same time point, 8 months after DEN administration. […]

For the next assay, the target named is PDI (Homo sapiens, UniProt P07237). The assay can be described thus: Protein disulfide isomerase assay (catalytic reduction of insulin, turbidity at 650 nm). Type of assay: biochemical. Set-up: purchased Sino Biological. As to conditions: insulin reduction in presence of 1 mM DTT, 25°C. The method, then: The assay is based on the measurement of the catalytic reduction of insulin as described by Lundstrom and Holmgren. In this assay, PDI facilitates the reduction of insulin in the presence of DTT. The reduced insulin chains aggregate, and the turbidity is monitored spectrophotometrically at 650 nm. The assay was performed in a 96-well plate format and a volume of 30 μl in the presence of 1 mM DTT, 1 μg PDI (Sino Biological), 0.14 mM bovine pancreas insulin (Sigma), and 0.2 mM EDTA in 100 mM potassium phosphate, pH 7.0. The progress of the reaction was monitored on a 96-well plate reader (Model 680 Microplate Reader, Bio-Rad Laboratories) at 650 nm for 95 minutes at 25°C. Ac-915, Ac-2010 or DMSO control was added prior to the addition of enzyme at the concentrations indicated. The nonenzymatic reduction of insulin by DTT was recorded in a control well without PDI. IC50 values of the compounds were calculated using nonlinear regression analysis.
These values are in good correlation with the KD values determined by direct biochemical interaction measurements using waveguide optical biosensors. The activity of PDI was based on the measurement of the catalytic reduction of insulin as described by Lundstrom and Holmgren. In this assay both analogs inhibited the PDI-induced reduction of insulin in the presence of dithiothreitol. […]

The target of a further assay is human HSP90. The assay can be described thus: Resonant waveguide optical biosensor binding assay. To be noted: immobilized human recombinant protein, curve fitting. The method, then: (§1) Protein immobilization was accomplished by applying 10 μL of 50 μg/mL human PDI (Sino Biological Inc., Beijing, China) or 50 μg/mL human HSP70 (Sino Biological) or 100 μg/mL human HSP90 (Sino Biological) in 20 mM sodium acetate pH 5.5 into a preactivated 384-well biochemical plate (Perkin Elmer) and incubating overnight at 4°C. The microplates were subsequently washed three times with assay buffer (PBS, pH 7.4/0.005% Tween 20/3% DMSO) and, after 25 minutes thermal equilibration, a baseline reading was taken in the Enspire Multimode Plate Reader (Perkin Elmer). Finally, 15 μL assay buffer was added including different concentrations of Ac-915 or Ac-2010. The Enspire response is measured as a shift in reflected wavelength and is expressed in picometers (pm). The affinity (KD) was calculated using a curve fitting method.
(§2) Direct biomolecular interactions were determined between human recombinant and purified HSP70, HSP90, PDI proteins and Ac-915 and Ac-2010 with resonant waveguide optical biosensor technology in a biochemical binding assay. The technology is based on a microplate with resonant waveguide optical biosensors integrated into each well and a high throughput screening-compatible optical reader (Enspire system, Perkin Elmer). The biochemical interaction between the small molecule and the protein was measured as a shift in reflected wavelength and is expressed in picometers (pm). The binding of both analogs to each of the protein was specific and saturable with the dose response (data not shown).

In a further assay the target is T1, human HSP70 (Homo sapiens, UniProt P0DMV8).
T1 construct: purchased Sino Biological
Description: Resonant waveguide optical biosensor binding assay. To be noted: immobilized human recombinant protein, curve fitting. The method, then:
as §1, §2

For a further assay, the system named is Hep3B. Description: Glutathione measurement (GSH-Glo). Type of assay: cell-based, human. To be noted: treated Hep3B cells. The method, then:
HepG2 cells (20000 cells per well in a 96-well plate) were incubated with Ac-915 in 50 μl PBS for 2 hours in a humidified atmosphere of 95% air and 5% CO2. 50 μl aliquots of prepared 2X GSH-GloTM Reagent (GSH-GloTM Glutathione assay; Promega, Madison, WI) were added to the wells and incubation continued at room temperature for 30 minutes. 100 μl of reconstituted Luciferin Detection Reagent (Promega) was added to each well and cells were incubated for 15 minutes further. Negative controls and blank reactions were also prepared. The amount of light produced was detected by luminometer.
Toxic compounds and numerous anticancer agents interfere with chaperone and ER functions leading to cellular stress which is manifested by elevated reactive oxygen species (ROS) and dramatic decrease in the anti-oxidant, glutathione (GSH) level. To investigate whether Ac-915 and Ac-2010 exert a pro-oxidative effect as determined earlier for other amino-trifluoro-phthalimides and “redox-reactive” thalidomide analogs, we measured the presence of ROS in human hepatocellular carcinoma cells (Hep3B) Figure 4a. To reveal the correlation of depletion of glutathione and ROS production of the analogs we determined the intracellular concentrations of glutathione. To determine whether Ac-915 and Ac-2010 affect intracellular GSH levels Hep3B cells were treated with compounds and GSH levels were recorded.

Structures are written as SMILES.

T1 sequence (P0DMV8 whole entry): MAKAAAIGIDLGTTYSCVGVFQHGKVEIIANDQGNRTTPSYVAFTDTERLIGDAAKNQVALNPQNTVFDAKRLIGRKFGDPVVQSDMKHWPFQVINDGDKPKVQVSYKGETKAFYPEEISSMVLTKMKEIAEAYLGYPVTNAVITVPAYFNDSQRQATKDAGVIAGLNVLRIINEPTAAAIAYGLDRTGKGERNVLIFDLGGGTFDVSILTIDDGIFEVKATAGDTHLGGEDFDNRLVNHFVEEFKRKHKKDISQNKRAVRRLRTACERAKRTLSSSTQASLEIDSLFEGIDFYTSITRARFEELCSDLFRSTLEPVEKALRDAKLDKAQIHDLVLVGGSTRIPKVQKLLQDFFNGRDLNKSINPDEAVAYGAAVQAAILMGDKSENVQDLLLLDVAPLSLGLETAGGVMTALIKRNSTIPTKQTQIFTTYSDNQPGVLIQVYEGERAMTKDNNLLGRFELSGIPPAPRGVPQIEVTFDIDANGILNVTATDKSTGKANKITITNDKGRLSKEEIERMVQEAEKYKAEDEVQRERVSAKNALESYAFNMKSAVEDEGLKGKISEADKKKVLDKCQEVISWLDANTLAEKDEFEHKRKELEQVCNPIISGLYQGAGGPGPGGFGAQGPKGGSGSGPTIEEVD
Sequence of PDI (P07237 18-508): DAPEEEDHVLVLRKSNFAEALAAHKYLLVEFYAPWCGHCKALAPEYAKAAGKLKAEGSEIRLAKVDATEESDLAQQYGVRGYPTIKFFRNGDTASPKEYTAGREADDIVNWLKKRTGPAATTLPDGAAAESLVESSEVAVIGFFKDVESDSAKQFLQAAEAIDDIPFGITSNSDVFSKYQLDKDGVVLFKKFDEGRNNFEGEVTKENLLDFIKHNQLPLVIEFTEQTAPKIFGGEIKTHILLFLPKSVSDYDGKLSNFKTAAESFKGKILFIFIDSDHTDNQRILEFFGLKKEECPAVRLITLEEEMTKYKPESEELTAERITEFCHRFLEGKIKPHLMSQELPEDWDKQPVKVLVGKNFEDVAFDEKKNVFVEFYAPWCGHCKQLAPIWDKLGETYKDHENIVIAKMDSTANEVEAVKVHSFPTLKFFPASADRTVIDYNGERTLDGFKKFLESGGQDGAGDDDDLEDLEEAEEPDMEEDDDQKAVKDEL

`CC(C)c1cccc(C(C)C)c1N1C(=O)c2c(F)c(F)c(F)c(NC(=O)NC(=O)CCl)c2C1=O` [Ac-2010]: the “Liver tumor incidence, number of tumors and liver mass index vs untreated control” value in the assay with DEN-induced liver tumors (4 mg/kg i.p. three times a week for 1 month, p < 0.01) was “less liver tumor incidence, fewer tumors and lower liver mass index”. For the same compound, on PDI, the IC50 was approximately 9 µM. The Kd on human HSP90 and at human HSP70 was approximately 16 µM in each case. In addition, the “Intracellular GSH levels” value with Hep3B is listed as “depleted intracellular GSH levels”.
Consider `CC(C)c1cccc(C(C)C)c1N1C(=O)c2c(F)c(F)c(F)c(N[C@@H]3C=CS(=O)(=O)C3)c2C1=O` [Ac-915, 2-[2,6-bis(propane-2-yl)phenyl]-4-{[(3R)-1,1-dioxo-2,3-dihydro-thiophene-3-yl]amino}-5,6,7-trifluoro-2,3-dihydro-1H-isoindole-1,3-dione], for which, in the assay on DEN-induced liver tumors (10 mg/kg i.p. three times a week for 3 months), the “Liver tumor development vs control mice” value was “significantly less tumor development”. In addition, the IC50 at PDI is approximately 15 µM. The values for the Kd on human HSP90 and at human HSP70 were 11.5 µM and 14 µM, respectively. Further, the “Intracellular GSH levels” value with Hep3B is on record as “depleted intracellular GSH levels”.

The term IC50 denotes the concentration at which inhibition is half-maximal. As a reminder, the Kd is the free concentration of one partner at which half of the binding sites on the other are occupied at equilibrium, for simple one-to-one binding.
